Measurements from patent US7795239B2, “Saccharide compositions and method of use” (Mueller Medical International LLC, priority 1992, dated 2010).

Parameters: AUC for Cimetidine / AUC for Ranitidine: unit not given beside the values
Settings: in vivo

AUC for Cimetidine | dissolved drug not absorbed from the GI tract into the blood stream | AUC for Ranitidine | SMILES
54.3 | 15-20% |  | CN/C(=N/CCSCc1nc[nH]c1C)NC#N [cimetidine]
 | 15-20% |  | NC(N)=Nc1nc(CSCCC(N)=NS(N)(=O)=O)cs1 [famotidine]
 | 15-20% | 55.2 | CNC(=C[N+](=O)[O-])NCCSCc1ccc(CN(C)C)o1 [ranitidine]
